Laboratory results published in patent publication US12503452B2 (Curza Global, LLC, priority 2019, dated 2025).
Read-outs that look alike come from different tables or passages of the source.

Columns and labels:
[1] = system: E. coli S30 extract (bacterial protein synthesis); experiment: E. coli S30 extract coupled transcription-translation luciferase assay (inhibition of bacterial protein synthesis); format: biochemical; conditions: class by IC50 or % inhibition @ 1 μM, read-out: S30 IC50 (μM/% inhib.)
How it was run: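 Luminescent read-out of luciferase made from pBESTluc DNA by E. coli S30 extract after 1 h at 37 °C with compound in an 8-point 2-fold series. Background came from no-DNA reactions. Percent inhibition was calculated against water-only controls.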

[2] = target: Rabbit Reticulocyte Lysate (eukaryotic protein synthesis); experiment: Rabbit reticulocyte lysate luciferase assay (inhibition of eukaryotic protein synthesis); format: biochemical; conditions: class by IC50 or % inhibition @ 1 μM, read-out: Rabbit reticulocyte IC50 (μM/% inhib.)
How it was run: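 Compounds were tested in 8-point 2-fold dilution series for blocking luciferase synthesis in nuclease-treated rabbit reticulocyte lysate (30° C., 90 minutes). Luminescence read-out, corrected by no-RNA background, was expressed as % inhibition against water-only reactions.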

A. baumannii (Ab) = experiment: Broth microdilution minimum inhibitory concentration (MIC); format: cell-based; conditions: Acinetobacter baumannii, A. baumannii, read-out: Ab + bicarb MIC
Procedure: (§1) A certified BSL-2 laboratory was used for testing. Compounds were evaluated using the broth microdilution minimum inhibitory concentration (MIC) and minimum bactericidal concentration (MBC) assays defined by Clinical and Laboratory Standards Institute (CLSI) in the M26-A guideline against S. aureus (Sa), E. coli (Ec), K. pneumoniae (Kp), A. baumannii (Ab), E. faecalis (Ef) and P. aeruginosa (Pa).
(§2) MICs were determined using the Clinical Laboratory and Standards Institute (CLSI) Broth Microdilution Method with slight modification. Clinical and Laboratory Standards Institute (2012). “Methods for dilution antimicrobial susceptibility tests for bacteria that grow aerobically; approved standard, 9th ed. M07-A9. Clinical and Laboratory Standards Institute, Wayne, PA” Serial two-fold dilutions of compounds are prepared in sterile clear round-bottom 96-well plates.
(§3) To prepare microdilution trays, two-fold dilutions of antimicrobial agent are prepared in growth medium: Cation-Adjusted Mueller-Hinton Broth (CAMHB), or CAMHB supplemented with sodium bicarbonate (6.25 or 25 mM final concentration prepared from a 1.0M stock solution) or CAMHB supplemented with heat inactivated human serum (Fisher Cat. #BP2657100) 0-50% by adding 200 μL of the highest concentration to be tested (64 μg/mL, for example) in row A, mixing and transferring 100 μL from row A to 100 μL growth medium in row B, then repeating the mixing and transferring through row H of the 96-well plate, discarding the excess 100 μL remaining. This slight modification to the CLSI protocol enables evaluation of MICs for 3 compounds per plate in triplicate, albeit with only 8 compound dilutions (CLSI protocol enables 2 compounds in triplicate with 10 dilutions). Bacterial suspensions are added to a final concentration of 5×10^4 CFU/well by adding 5 μL of a 1:10 dilution of a 0.5 McFarland suspension (1×10^8 CFU/mL) for each bacterium evaluated. Bacterial suspensions were prepared using the growth method described by CLSI. Well-isolated colonies (3-5 from an agar plate) were selected using a sterile loop and used to inoculate a tube containing 4 mL of CAMHB. The cultures are incubated at 35±2° C. until it achieves or exceeds the turbidity of the 0.5 McFarland standard, determined by measuring A600nm (usually two to six hours). When growth exceeds a 0.5 McFarland standard, the turbidity is adjusted with broth to be equivalent to a 0.5 McFarland standard.

E. coli (Ec) = experiment: as above; format: cell-based; conditions: Escherichia coli, E. coli; growth medium supplemented with sodium bicarbonate; read-out: E. coli + bicarb MIC
Procedure: as §1, §2, §3

P. aeruginosa (Pa) = experiment: as above; format: cell-based; conditions: Pseudomonas aeruginosa, P. aeruginosa; growth medium supplemented with sodium bicarbonate; read-out: Pa MIC + bicarb
Procedure: as §1, §2, §3

S. aureus (Sa) = experiment: as above; format: cell-based; conditions: Staphylococcus aureus, S. aureus; growth medium supplemented with sodium bicarbonate; read-out: Sa + bicarb MIC
Procedure: as §1, §2, §3

E. faecalis (Ef) = experiment: as above; format: cell-based; conditions: Enterococcus faecalis, E. faecalis, read-out: Ef + bicarb MIC
Procedure: as §1, §2, §3

[3] = growth medium supplemented with sodium bicarbonate
[4] = growth medium with sodium bicarbonate

Structure (SMILES)	IC50 [1] [µM]	IC50 [2] [µM]	MIC (A. baumannii (Ab); [3]) [µg/mL]	MIC (E. coli (Ec)) [µg/mL]	MIC (P. aeruginosa (Pa)) [µg/mL]	MIC (S. aureus (Sa)) [µg/mL]	MIC (E. faecalis (Ef); [3]) [µg/mL]	MIC (A. baumannii (Ab); [4]) [µg/mL]	MIC (E. faecalis (Ef); [4]) [µg/mL]
NC1CCN(Cc2ccc(-n3ccc(NC(=O)N4CC(N)C4)nc3=O)cc2)CC1 [Compound 49]	> 1	> 1	> 32	> 32	> 32				
C[C@](N)(CO)C(=O)N1CCN(C(=O)Nc2ccn(-c3cc(CN4CCC(N)CC4)cc(OC(F)(F)F)c3)c(=O)n2)CC1 [Compound 103]	> 1	> 1	> 32	> 32					
CC(C)(N)C(=O)N1CC2COCC(C1)N2C(=O)Nc1ccn(-c2ccc(CN3CCC(N)CC3)cc2)c(=O)n1 [Compound 85]	> 1	> 1		< 8	> 32	> 32			
CC(N)[C@@H]1CCN(CCc2ccc(-n3ccc(NC(=O)N4CCN(C(=O)C(C)(C)N)CC4)nc3=O)cc2)C1 (stereo partly shown) [Compound 43]	< 0.5	> 1	> 32	< 8	8 to 32		8 to 32		
CC(N)C1CCCN(CCc2ccc(-n3ccc(NC(=O)N4CCN(C(=O)C(C)(C)N)CC4)nc3=O)cc2)C1 (stereo not shown) [Compound 22]	< 0.5	> 1		< 8	> 32	< 8			
CC(N)C1CCN(CCc2ccc(-n3ccc(NC(=O)N4CCN(C(=O)C(C)(C)N)CC4)nc3=O)cc2)CC1 (stereo not shown) [Compound 168]	< 0.5	> 1						> 32	8 to 32
CNC(C)(C)C(=O)N1CCN(C(=O)Nc2ccn(-c3ccc(CN4CCC(N)CC4)cc3)c(=O)n2)CC1 [Compound 96]	> 1	> 1		< 8	> 32	< 8			
CC(C)(N)C(=O)N1C2COCC1CN(C(=O)Nc1ccn(-c3ccc(CN4CCC(N)CC4)cc3)c(=O)n1)C2 [Compound 68]	0.5 to 1	> 1		< 8	> 32	> 32			
C[C@H]1CN(C(=O)C(C)(C)N)CCN1C(=O)Nc1ccn(-c2ccc(CN3CCC(N)CC3)cc2)c(=O)n1 [Compound 56]	< 0.5	> 1		< 8	> 32				
CC(C)(N)C(=O)N1CCN(C(=O)Nc2ccn(-c3ccc(CN4CCC(N)CC4)cc3)c(=O)c2)[C@H](C(=O)O)C1 [Compound 64]	< 0.5	> 1		> 32	> 32				
CC(C)(N)C(=O)N1CCN(C(=O)Nc2ccn(-c3ccc(CN4CCC(N)CC4)cc3)c(=O)n2)C(c2ccccc2)C1 (stereo not shown) [Compound 59]	> 1	> 1	> 32	> 32	> 32				
Cc1cc(-n2ccc(NC(=O)N3CCN(C(=O)C(C)(C)N)CC3)nc2=O)ccc1CN1CCC(N)CC1 [Compound 91]	< 0.5	> 1	> 32	< 8	> 32		< 8		
C[C@](N)(CO)C(=O)N1CCN(C(=O)Nc2ccn(-c3ccc(CCN4CCC[C@@H](N)C4)cc3)c(=O)n2)CC1 [Compound 12]	0.5 to 1	> 1	> 32	> 32	> 32				
CC(N)[C@H]1CCN(Cc2ccc(-n3ccc(NC(=O)N4CCN(C(=O)C(C)(C)N)CC4)nc3=O)cc2)C1 (stereo partly shown) [Compound 45]	< 0.5	> 1	> 32				< 8		
